Legend:
APEC strains = settings: nearly 150 APEC strains, in vitro [Oliviera A. et al., 2009]; cited from earlier work
selected APEC strains = test: Sensitivity of all selected APEC strains to drugs (disk diffusion) and to BAFACOL, summary; assay type: cell-based, Escherichia coli; settings: all 12 selected strains
Protocol: BAFACOL preparation with the total titer of 1×10^8 PFU/ml was used in the tests.
The drug sensitivity of APEC strains was tested with a disk diffusion method, according to CLSI recommendations (Clinical Laboratory Standards Institute; 2008 document: Performance standards for antimicrobial disk and dilution susceptibility tests for bacteria isolated from animals; approved standard, 3rd Ed. CLSI document M31-A3. Clinical and Laboratory Standards Institute, Wayne, PA.). The disk diffusion method used disks soaked with 10 selected drugs (Table 9).
The other tested APEC strains were resistant to 6-8 test antimicrobial drugs.

E. coli strain 130PP2017 = test: Sensitivity of APEC strain to drugs (disk diffusion) and to BAFACOL; assay type: cell-based, Escherichia coli; settings: CLSI, disk content as in column head
Protocol: The drug sensitivity of APEC strains was tested with a disk diffusion method, according to CLSI recommendations (Clinical Laboratory Standards Institute; 2008 document: Performance standards for antimicrobial disk and dilution susceptibility tests for bacteria isolated from animals; approved standard, 3rd Ed. CLSI document […]-A3. Clinical and Laboratory Standards Institute, Wayne, PA.). The disk diffusion method used disks soaked with 10 selected drugs (Table 9).

Row | Structure (SMILES) | Drug sensitivity of all selected APEC strains (selected APEC strains) | other results
1 | CCN1CCN(c2cc3c(cc2F)c(=O)c(C(=O)O)cn3C2CC2)CC1 [enrofloxacin] |  | Share of studied APEC strains that were sensitive (APEC strains): more than 50%
2 | [H]/N=C(/N)N[C@H]1[C@H](O)[C@@H](O)[C@H](O[C@@H]2O[C@@H](C)[C@](O)(C=O)[C@H]2O[C@@H]2O[C@@H](CO)[C@H](O)[C@@H](O)[C@@H]2NC)[C@@H](N/C(N)=N\[H])[C@@H]1O [Streptomycin] | resistant | 
3 | CN[C@@H]1[C@@H](O[C@H]2O[C@H](CO)[C@@H](N)[C@H](O)[C@H]2O)OC2C[C@@H](N)[C@@H](O[C@H]3[C@H](O)[C@@H](O)[C@H](N)C[C@@H]3N)OC2[C@@H]1O (some centres unmarked) [Apramycin] |  | Sensitivity to drug (R/I/S) (E. coli strain 130PP2017): sensitive
4 | CCn1cc(C(=O)O)c(=O)c2ccc(C)nc21 [Nalidixic acid] | resistant | 
5 | CC1(C)S[C@@H]2[C@H](NC(=O)[C@H](N)c3ccccc3)C(=O)N2[C@H]1C(=O)O [Ampicillin] | resistant | 

— patent US20240050498A1, “SYNERGISTIC COMPOSITION OF PHAGES AND ITS FORMATION METHOD” (Proteon Pharmaceuticals S.A., priority 2020, published 2024)
